From ChEMBL document CHEMBL1201862, “PubChem BioAssay data set” (2004)
Where “and” joins values, the source holds several entries; their conditions need not be identical. Identical values can stand only once.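 Each compound was tested at five concentrations against cells in 96-well plates for 48 hours. GI50: concentration for 50% inhibition of growth.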 Calls of active or inactive are those of the source. Rule as the data show it: active = GI50 up to about 1.1 µM and inactive = higher.

Key:
Assay in all cases: NCI anticancer screen, dose series, 48 h
RXF 393 = test system: RXF 393
SNB-75 = test system: SNB-75
786-0 = test system: 786-0
CAKI-1 = test system: CAKI-1
HCT-15 = test system: HCT-15
NCI/ADR-RES = test system: NCI/ADR-RES
SF-268 = test system: SF-268
IGROV-1 = test system: IGROV-1
NCI-H460 = test system: NCI-H460
SNB-19 = test system: SNB-19
A549 = test system: A549
Hs-578T = test system: Hs-578T
HOP-92 = test system: HOP-92
ACHN = test system: ACHN
HOP-62 = test system: HOP-62
K562 = test system: K562
NCI-H226 = test system: NCI-H226
DU-145 = test system: DU-145
U-251 = test system: U-251
SF-539 = test system: SF-539
NCI-H522 = test system: NCI-H522
MOLT-4 = test system: MOLT-4
SN12C = test system: SN12C
UO-31 = test system: UO-31
OVCAR-3 = test system: OVCAR-3
PC-3 = test system: PC-3
SK-OV-3 = test system: SK-OV-3
EKVX = test system: EKVX
SK-MEL-5 = test system: SK-MEL-5
NCI-H23 = test system: NCI-H23
SK-MEL-28 = test system: SK-MEL-28
A498 = test system: A498
UACC-257 = test system: UACC-257
HT-29 = test system: HT-29
OVCAR-4 = test system: OVCAR-4
HL-60 = test system: HL-60
COLO 205 = test system: COLO 205
T47D = test system: T47D
MDA-MB-435 = test system: MDA-MB-435
SF-295 = test system: SF-295
Malme-3M = test system: Malme-3M
M14 = test system: M14
RPMI-8226 = test system: RPMI-8226
SR = test system: SR
CCRF-CEM = test system: CCRF-CEM
HCC 2998 = test system: HCC 2998
MCF7 = test system: MCF7
HCT-116 = test system: HCT-116
TK-10 = test system: TK-10
SK-MEL-2 = test system: SK-MEL-2
UACC-62 = test system: UACC-62
LOX IMVI = test system: LOX IMVI
MDA-MB-231 = test system: MDA-MB-231
OVCAR-8 = test system: OVCAR-8
BT-549 = test system: BT-549
SW-620 = test system: SW-620
KM12 = test system: KM12
OVCAR-5 = test system: OVCAR-5

CC(=O)OCC1OC(n2c(S)c(C#N)c(-c3ccccc3)c(C#N)c2=O)C(OC(C)=O)C(OC(C)=O)C1OC(C)=O (stereo not drawn)
GI50 (RXF 393): 19.5 µM (inactive) and 18.5 µM (inactive) | GI50 (SNB-75): 26.2 µM (inactive) and 20.1 µM (inactive) | GI50 (786-0): 30 µM (inactive) and 33.9 µM (inactive) | GI50 (CAKI-1): 50.8 µM (inactive) and 61.9 µM (inactive) | GI50 (HCT-15): > 100 µM | GI50 (NCI/ADR-RES): > 100 µM (inactive) | GI50 (SF-268): 21.8 µM (inactive) and 33 µM (inactive) | GI50 (IGROV-1): 53 µM (inactive) | GI50 (NCI-H460): 50.2 µM (inactive) and > 88.7 µM (inactive) | GI50 (SNB-19): 32.2 µM (inactive) | GI50 (A549): > 100 µM (inactive) | GI50 (Hs-578T): 38.8 µM (inactive) | GI50 (HOP-92): 31.3 µM (inactive) and 16.6 µM (inactive) | GI50 (ACHN): 54.1 µM (inactive) and 78.5 µM (inactive) | GI50 (HOP-62): 21.7 µM (inactive) and 21.9 µM (inactive) | GI50 (K562): > 100 µM (inactive) | GI50 (NCI-H226): > 87.7 µM (inactive) | GI50 (DU-145): 58.3 µM (inactive) | GI50 (U-251): 23.8 µM (inactive) and 35.2 µM (inactive)

Nc1nc(Cl)c2ncn(Cc3cccc(CCl)c3)c2n1
GI50 (SF-539): 5.24 µM (inactive) | GI50 (RXF 393): 2.61 µM (inactive) | GI50 (NCI-H522): 2.4 µM (inactive) | GI50 (MOLT-4): 3.6 µM (inactive) | GI50 (SNB-75): 9.75 µM (inactive) | GI50 (SN12C): 8.05 µM (inactive) | GI50 (UO-31): 13.4 µM (inactive) | GI50 (786-0): 5.37 µM (inactive) | GI50 (OVCAR-3): 1.33 µM (inactive) | GI50 (CAKI-1): 1.23 µM (inactive) | GI50 (PC-3): 10.2 µM (inactive) | GI50 (HCT-15): 2.12 µM | GI50 (NCI/ADR-RES): 3.47 µM (inactive) | GI50 (SK-OV-3): 20 µM (inactive) | GI50 (EKVX): 8.97 µM (inactive) | GI50 (SK-MEL-5): 5.7 µM (inactive) | GI50 (SF-268): 5.09 µM (inactive) | GI50 (NCI-H23): 1.87 µM (inactive) | GI50 (IGROV-1): 3.31 µM (inactive) | GI50 (SK-MEL-28): 5.28 µM (inactive) | GI50 (A498): 25 µM (inactive) | GI50 (UACC-257): 6.01 µM (inactive) | GI50 (NCI-H460): 3.87 µM (inactive) | GI50 (HT-29): 3.87 µM (inactive) | GI50 (SNB-19): 5.89 µM (inactive) | GI50 (OVCAR-4): 2.13 µM (inactive) | GI50 (HL-60): 3.95 µM (inactive) | GI50 (COLO 205): 8.38 µM (inactive) | GI50 (T47D): 7.36 µM (inactive) | GI50 (MDA-MB-435): 6.73 µM (inactive) | GI50 (SF-295): 7.01 µM (inactive) | GI50 (A549): 13.2 µM (inactive) | GI50 (Malme-3M): 5.81 µM (inactive) | GI50 (Hs-578T): 7.03 µM (inactive) | GI50 (M14): 3.66 µM (inactive) | GI50 (RPMI-8226): 2.57 µM (inactive) | GI50 (SR): 1.74 µM (inactive) | GI50 (HOP-92): 1.64 µM (inactive) | GI50 (ACHN): 3.45 µM (inactive) | GI50 (HOP-62): 2.84 µM (inactive) | GI50 (CCRF-CEM): 3.18 µM (inactive) | GI50 (HCC 2998): 3.03 µM (inactive) | GI50 (MCF7): 5.35 µM (inactive) | GI50 (HCT-116): 2 µM (inactive) | GI50 (K562): 4.38 µM (inactive) | GI50 (TK-10): 6.31 µM (inactive) | GI50 (SK-MEL-2): 12.1 µM (inactive) | GI50 (UACC-62): 4.16 µM (inactive) | GI50 (LOX IMVI): 3.33 µM (inactive) | GI50 (MDA-MB-231): 11 µM (inactive) | GI50 (OVCAR-8): 3.24 µM (inactive) | GI50 (BT-549): 4.09 µM (inactive) | GI50 (SW-620): 3.61 µM (inactive) | GI50 (KM12): 4.53 µM (inactive) | GI50 (OVCAR-5): 9.16 µM (inactive) | GI50 (NCI-H226): 6.28 µM (inactive) | GI50 (DU-145): 6.03 µM (inactive) | GI50 (U-251): 2.17 µM (inactive)

C=C(C)C1CC/C(C)=C/CC[C@]2(C)O[C@H]2CC/C(COC(C)=O)=C\[C@@H]1O (stereo partly drawn)
GI50 (SF-539): > 50 µM (inactive) | GI50 (RXF 393): > 50 µM (inactive) | GI50 (NCI-H522): 19.2 µM (inactive) | GI50 (MOLT-4): 16 µM (inactive) | GI50 (SN12C): > 50 µM (inactive) | GI50 (UO-31): > 50 µM (inactive) | GI50 (786-0): > 50 µM (inactive) | GI50 (OVCAR-3): > 50 µM (inactive) | GI50 (CAKI-1): > 50 µM (inactive) | GI50 (PC-3): 22.4 µM (inactive) | GI50 (HCT-15): > 50 µM | GI50 (NCI/ADR-RES): 20.7 µM (inactive) | GI50 (SK-OV-3): 31.1 µM (inactive) | GI50 (EKVX): > 50 µM (inactive) | GI50 (SK-MEL-5): > 50 µM (inactive) | GI50 (SF-268): > 50 µM (inactive) | GI50 (NCI-H23): > 50 µM (inactive) | GI50 (IGROV-1): > 50 µM (inactive) | GI50 (SK-MEL-28): > 50 µM (inactive) | GI50 (A498): > 50 µM (inactive) | GI50 (UACC-257): > 50 µM (inactive) | GI50 (NCI-H460): 25.1 µM (inactive) | GI50 (HT-29): > 50 µM (inactive) | GI50 (SNB-19): > 50 µM (inactive) | GI50 (OVCAR-4): > 50 µM (inactive) | GI50 (HL-60): 27.4 µM (inactive) | GI50 (COLO 205): 17.9 µM (inactive) | GI50 (T47D): > 50 µM (inactive) | GI50 (MDA-MB-435): 22.7 µM (inactive) | GI50 (SF-295): 30.7 µM (inactive) | GI50 (A549): > 50 µM (inactive) | GI50 (RPMI-8226): > 50 µM (inactive) | GI50 (SR): 34.6 µM (inactive) | GI50 (HOP-92): > 50 µM (inactive) | GI50 (ACHN): > 50 µM (inactive) | GI50 (HOP-62): 28.8 µM (inactive) | GI50 (CCRF-CEM): 16.3 µM (inactive) | GI50 (HCC 2998): > 50 µM (inactive) | GI50 (MCF7): > 50 µM (inactive) | GI50 (HCT-116): > 50 µM (inactive) | GI50 (K562): 11.1 µM (inactive) | GI50 (TK-10): > 50 µM (inactive) | GI50 (SK-MEL-2): > 50 µM (inactive) | GI50 (UACC-62): > 50 µM (inactive) | GI50 (MDA-MB-231): > 50 µM (inactive) | GI50 (OVCAR-8): > 50 µM (inactive) | GI50 (BT-549): > 50 µM (inactive) | GI50 (SW-620): > 50 µM (inactive) | GI50 (KM12): > 50 µM (inactive) | GI50 (OVCAR-5): > 50 µM (inactive) | GI50 (NCI-H226): > 50 µM (inactive) | GI50 (DU-145): > 50 µM (inactive) | GI50 (U-251): > 50 µM (inactive)

Sc1nn2c(COc3ccc(Cl)cc3)nnc2s1
GI50 (SF-539): > 100 µM (inactive) | GI50 (RXF 393): > 100 µM (inactive) | GI50 (NCI-H522): > 100 µM (inactive) | GI50 (MOLT-4): > 100 µM (inactive) | GI50 (SNB-75): > 100 µM (inactive) | GI50 (SN12C): > 100 µM (inactive) | GI50 (UO-31): > 100 µM (inactive) | GI50 (786-0): > 100 µM (inactive) | GI50 (OVCAR-3): > 100 µM (inactive) | GI50 (CAKI-1): > 100 µM (inactive) | GI50 (PC-3): > 100 µM (inactive) | GI50 (HCT-15): 81.8 µM | GI50 (NCI/ADR-RES): > 100 µM (inactive) | GI50 (SK-OV-3): > 100 µM (inactive) | GI50 (EKVX): > 100 µM (inactive) | GI50 (SK-MEL-5): > 100 µM (inactive) | GI50 (SF-268): > 100 µM (inactive) | GI50 (NCI-H23): > 100 µM (inactive) | GI50 (IGROV-1): > 100 µM (inactive) | GI50 (SK-MEL-28): > 100 µM (inactive) | GI50 (UACC-257): > 100 µM (inactive) | GI50 (NCI-H460): > 100 µM (inactive) | GI50 (HT-29): > 100 µM (inactive) | GI50 (SNB-19): > 100 µM (inactive) | GI50 (OVCAR-4): > 100 µM (inactive) | GI50 (HL-60): > 100 µM (inactive) | GI50 (COLO 205): > 100 µM (inactive) | GI50 (T47D): > 100 µM (inactive) | GI50 (MDA-MB-435): > 100 µM (inactive) | GI50 (SF-295): > 100 µM (inactive) | GI50 (A549): > 100 µM (inactive) | GI50 (Malme-3M): > 100 µM (inactive) | GI50 (M14): > 100 µM (inactive) | GI50 (RPMI-8226): > 100 µM (inactive) | GI50 (SR): > 100 µM (inactive) | GI50 (HOP-92): > 100 µM (inactive) | GI50 (ACHN): > 100 µM (inactive) | GI50 (HOP-62): > 100 µM (inactive) | GI50 (HCC 2998): > 100 µM (inactive) | GI50 (MCF7): > 100 µM (inactive) | GI50 (HCT-116): > 100 µM (inactive) | GI50 (K562): > 100 µM (inactive) | GI50 (TK-10): > 100 µM (inactive) | GI50 (SK-MEL-2): > 100 µM (inactive) | GI50 (UACC-62): > 100 µM (inactive) | GI50 (MDA-MB-231): > 100 µM (inactive) | GI50 (OVCAR-8): > 100 µM (inactive) | GI50 (SW-620): > 100 µM (inactive) | GI50 (KM12): > 100 µM (inactive) | GI50 (OVCAR-5): > 100 µM (inactive) | GI50 (NCI-H226): > 100 µM (inactive) | GI50 (DU-145): > 100 µM (inactive) | GI50 (U-251): > 100 µM (inactive)
